The text below walks through data of patent publication US9096627B2, “Hydroxamic acid derivatives” (Purdue Pharmaceutical Products L.P., priority 2009, dated 2015).

One assay has as its target HDAC-2 (Homo sapiens (Human), UniProt Q92769). Put plainly: biochemical. It is filed as biochemical. On the procedure:
(§1) Hydroxamic acid is a well know metal-chelating agent, especially for Zn atom. […] Many of these metalloenzymes are well known important disease target, such as HDAC and MMP. […] The following protocol is used to assay the compounds of the invention against the HDAC enzymes.
(§2) The enzyme stock solution is 4 μg/mL in buffer. The compounds are pre-incubated (2 μl in DMSO diluted to 13 μl in buffer for transfer to assay plate) with enzyme (20 μl of 4 μg/ml) for 10 minutes at room temperature (35 μl pre-incubation volume). The mixture is pre-incubated for 5 minutes at room temperature. The reaction is started by bringing the temperature to 37° C. and adding […] substrate. Total reaction volume is 50 μl. […] Such assays, carried out with a range of doses of test compounds, allow the determination of an approximate IC50 value.

The next assay concerns the target HDAC-1 (Homo sapiens (Human), UniProt Q13547). The experiment in a line: Inhibition of histone deacetylase enzymatic activity (Fluor-de-Lys). It counts as biochemical. On the procedure: as §1, §2
The target in another assay is HDAC-10 (Homo sapiens (Human), UniProt Q969S8). The description is as above. It counts as biochemical. As for the experimental part: as §1, §2
HDAC-10, sequence (Q969S8 whole entry, species assumed): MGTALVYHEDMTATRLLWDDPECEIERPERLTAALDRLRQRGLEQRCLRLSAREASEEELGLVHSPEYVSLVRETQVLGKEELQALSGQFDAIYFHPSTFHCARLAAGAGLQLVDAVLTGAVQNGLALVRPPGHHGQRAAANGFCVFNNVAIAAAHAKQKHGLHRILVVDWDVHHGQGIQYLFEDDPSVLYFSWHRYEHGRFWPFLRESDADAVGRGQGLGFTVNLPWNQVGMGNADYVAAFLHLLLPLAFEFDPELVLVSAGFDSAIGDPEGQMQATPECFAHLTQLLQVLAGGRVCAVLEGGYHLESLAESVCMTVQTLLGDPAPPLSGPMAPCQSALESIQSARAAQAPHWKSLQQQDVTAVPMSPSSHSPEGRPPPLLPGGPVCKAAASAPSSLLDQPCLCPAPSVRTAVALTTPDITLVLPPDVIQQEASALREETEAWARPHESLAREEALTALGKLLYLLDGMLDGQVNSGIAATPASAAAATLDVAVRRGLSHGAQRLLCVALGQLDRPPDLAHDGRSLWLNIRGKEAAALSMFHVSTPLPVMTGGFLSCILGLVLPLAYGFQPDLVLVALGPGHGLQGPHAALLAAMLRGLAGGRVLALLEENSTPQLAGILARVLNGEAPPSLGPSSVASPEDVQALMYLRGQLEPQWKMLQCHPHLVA
A further assay concerns the target HDAC-3 (Homo sapiens (Human), UniProt O15379). Described as above. It is filed as biochemical. On the procedure:
as §1, §2

For the next assay, the target named is HDAC-6 (Homo sapiens (Human), UniProt Q9UBN7). The description is as above. It counts as biochemical. On the procedure: as §1, §2
Another assay has as its target HDAC-8 (Homo sapiens (Human), UniProt Q9BY41). Described as above. It counts as biochemical. As for the experimental part:
as §1, §2

The subject of another assay is MM1R. Put plainly: In vitro anti-proliferation assay (ATPlite luminescence). The settings on record: MM.1R, 72 hours, 5% FBS, read-out: IC50 cell anti-proliferative assay MM1R. It counts as cell-based. As for the experimental part: (§3) Cell antiproliferation was assayed by PerkinElmer ATPlite™ Luminescence Assay System. The cancer cell lines were plated at 10 k cells per well in Costar 96-well plates with different concentration of compounds for 72 hours with 5% FBS. After that, one lyophilized substrate solution vial was reconstituted by adding 5 mL of substrate buffer solution and was agitated gently until the solution is homogeneous. 50 μL of mammalian cell lysis solution was added to 100 μL of cell suspension per well of a microplate and the plate was shaken for five minutes in an orbital shaker at 700 rpm. This procedure will lyses the cells and stabilizes the ATP. Next, 50 μL substrate solution was added to the wells and microplate was shaken for five minutes in an orbital shaker at 700 rpm. Finally the luminescence was measured by a PerkinElmer TopCount® Microplate Scintillation Counter. Such assays, carried out with a range of doses of test compounds, allow the determination of an approximate IC50 value for the in vitro cell antiproliferation assay of cancer cell lines.

For another assay, the system named is MM1S. The assay is described as above. It counts as cell-based. The note with it: Homo sapiens, MM1.S, 72 hours, 5% FBS, read-out: IC50 cell anti-proliferative assay MM1S. On the procedure:
as §3

For a further assay, the system named is RPMI8226. Described as above. It is filed as cell-based. The settings on record: Homo sapiens, RPMI-8226; RPMI8226, 72 hours, 5% FBS; read-out: IC50 cell anti-proliferative assay RPMI8226. As for the experimental part: as §3

HDAC-1, sequence (Q13547 whole entry, species assumed): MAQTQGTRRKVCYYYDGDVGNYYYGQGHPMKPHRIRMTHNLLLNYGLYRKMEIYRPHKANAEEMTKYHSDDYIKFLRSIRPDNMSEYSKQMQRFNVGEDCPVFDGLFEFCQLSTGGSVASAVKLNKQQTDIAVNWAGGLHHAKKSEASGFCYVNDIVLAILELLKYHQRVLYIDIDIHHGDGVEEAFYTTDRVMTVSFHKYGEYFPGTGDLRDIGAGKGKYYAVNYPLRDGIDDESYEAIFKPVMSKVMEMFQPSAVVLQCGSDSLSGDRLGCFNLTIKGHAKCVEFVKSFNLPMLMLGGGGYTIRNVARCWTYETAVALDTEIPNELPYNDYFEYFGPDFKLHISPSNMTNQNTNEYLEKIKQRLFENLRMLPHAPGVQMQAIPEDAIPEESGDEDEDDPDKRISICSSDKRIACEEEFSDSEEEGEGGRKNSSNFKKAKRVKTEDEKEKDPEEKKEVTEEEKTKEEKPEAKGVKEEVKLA
HDAC-3, sequence (O15379 whole entry, looked up, species assumed): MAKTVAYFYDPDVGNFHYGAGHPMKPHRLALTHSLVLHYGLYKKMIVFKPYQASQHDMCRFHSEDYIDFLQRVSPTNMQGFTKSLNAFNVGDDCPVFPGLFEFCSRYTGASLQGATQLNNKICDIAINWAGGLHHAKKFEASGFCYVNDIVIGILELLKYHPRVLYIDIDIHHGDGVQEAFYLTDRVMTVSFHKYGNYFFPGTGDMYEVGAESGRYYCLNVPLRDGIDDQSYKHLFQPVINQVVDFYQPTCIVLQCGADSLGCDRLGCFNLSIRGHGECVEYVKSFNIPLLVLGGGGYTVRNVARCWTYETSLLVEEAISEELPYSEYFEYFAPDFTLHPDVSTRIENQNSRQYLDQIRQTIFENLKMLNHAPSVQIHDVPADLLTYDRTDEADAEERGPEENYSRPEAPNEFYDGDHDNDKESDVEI
HDAC-3, sequence (Q9Y618 whole entry partner, looked up, species assumed): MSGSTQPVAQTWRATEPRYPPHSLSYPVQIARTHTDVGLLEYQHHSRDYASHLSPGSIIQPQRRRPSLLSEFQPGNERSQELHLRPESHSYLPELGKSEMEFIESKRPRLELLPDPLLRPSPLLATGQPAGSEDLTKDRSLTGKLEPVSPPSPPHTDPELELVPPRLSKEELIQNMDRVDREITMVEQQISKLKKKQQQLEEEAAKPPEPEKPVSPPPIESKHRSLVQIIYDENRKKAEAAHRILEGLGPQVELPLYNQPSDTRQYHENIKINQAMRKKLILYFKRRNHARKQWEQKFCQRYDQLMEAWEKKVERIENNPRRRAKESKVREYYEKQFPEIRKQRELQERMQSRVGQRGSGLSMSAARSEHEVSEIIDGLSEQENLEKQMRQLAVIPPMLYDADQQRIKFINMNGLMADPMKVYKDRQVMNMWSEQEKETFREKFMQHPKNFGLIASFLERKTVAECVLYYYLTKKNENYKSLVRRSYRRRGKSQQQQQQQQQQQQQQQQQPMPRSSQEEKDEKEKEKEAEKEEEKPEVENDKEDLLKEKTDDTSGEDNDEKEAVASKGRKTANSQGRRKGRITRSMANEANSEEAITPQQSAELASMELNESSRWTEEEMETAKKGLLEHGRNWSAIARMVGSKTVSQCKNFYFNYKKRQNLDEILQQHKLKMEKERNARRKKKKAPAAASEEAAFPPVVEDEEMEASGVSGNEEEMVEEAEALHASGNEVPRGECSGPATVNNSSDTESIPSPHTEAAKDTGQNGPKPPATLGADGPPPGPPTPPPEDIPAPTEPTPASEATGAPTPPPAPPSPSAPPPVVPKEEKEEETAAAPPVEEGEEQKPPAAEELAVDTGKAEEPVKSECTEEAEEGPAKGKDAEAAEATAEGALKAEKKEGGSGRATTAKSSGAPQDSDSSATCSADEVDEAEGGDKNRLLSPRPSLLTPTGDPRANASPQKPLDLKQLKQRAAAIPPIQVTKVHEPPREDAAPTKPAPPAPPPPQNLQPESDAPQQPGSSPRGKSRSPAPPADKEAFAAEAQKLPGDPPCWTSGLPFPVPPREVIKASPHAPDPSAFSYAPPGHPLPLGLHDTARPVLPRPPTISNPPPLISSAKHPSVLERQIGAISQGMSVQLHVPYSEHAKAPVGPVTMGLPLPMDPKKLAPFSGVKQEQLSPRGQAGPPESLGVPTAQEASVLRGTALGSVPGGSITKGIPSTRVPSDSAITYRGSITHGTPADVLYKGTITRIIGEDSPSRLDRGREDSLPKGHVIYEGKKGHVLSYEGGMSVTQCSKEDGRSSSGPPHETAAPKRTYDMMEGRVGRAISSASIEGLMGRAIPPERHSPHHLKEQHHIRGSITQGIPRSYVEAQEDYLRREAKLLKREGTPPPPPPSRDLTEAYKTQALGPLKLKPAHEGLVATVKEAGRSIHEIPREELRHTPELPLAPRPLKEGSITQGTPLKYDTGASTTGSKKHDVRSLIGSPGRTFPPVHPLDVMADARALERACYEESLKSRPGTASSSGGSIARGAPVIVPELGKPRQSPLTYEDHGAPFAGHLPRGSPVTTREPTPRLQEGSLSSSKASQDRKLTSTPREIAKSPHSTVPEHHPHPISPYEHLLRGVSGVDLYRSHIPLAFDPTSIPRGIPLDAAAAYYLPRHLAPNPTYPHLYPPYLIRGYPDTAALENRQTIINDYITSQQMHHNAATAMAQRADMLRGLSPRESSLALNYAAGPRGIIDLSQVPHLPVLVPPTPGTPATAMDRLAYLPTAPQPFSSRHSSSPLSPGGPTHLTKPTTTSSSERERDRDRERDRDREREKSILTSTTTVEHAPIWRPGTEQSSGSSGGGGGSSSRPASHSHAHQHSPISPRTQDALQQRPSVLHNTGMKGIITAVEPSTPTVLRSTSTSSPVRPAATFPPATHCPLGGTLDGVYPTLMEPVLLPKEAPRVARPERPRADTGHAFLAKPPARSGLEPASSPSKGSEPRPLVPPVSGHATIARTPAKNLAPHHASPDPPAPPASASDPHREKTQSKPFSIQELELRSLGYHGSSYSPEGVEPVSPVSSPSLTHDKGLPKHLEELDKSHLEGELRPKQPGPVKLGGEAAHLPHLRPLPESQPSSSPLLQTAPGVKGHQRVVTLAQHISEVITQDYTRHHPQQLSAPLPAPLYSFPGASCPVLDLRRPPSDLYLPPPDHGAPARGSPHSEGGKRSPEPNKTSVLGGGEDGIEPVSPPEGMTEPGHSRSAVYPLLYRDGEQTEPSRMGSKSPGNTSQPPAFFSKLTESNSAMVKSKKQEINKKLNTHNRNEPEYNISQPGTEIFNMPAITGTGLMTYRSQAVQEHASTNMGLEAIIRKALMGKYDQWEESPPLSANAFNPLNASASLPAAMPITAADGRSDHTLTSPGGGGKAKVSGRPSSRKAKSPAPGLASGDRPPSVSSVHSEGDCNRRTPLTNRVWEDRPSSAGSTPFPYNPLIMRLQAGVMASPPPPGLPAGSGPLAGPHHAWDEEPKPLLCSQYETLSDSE
HDAC-8, sequence (Q9BY41 whole entry, species assumed): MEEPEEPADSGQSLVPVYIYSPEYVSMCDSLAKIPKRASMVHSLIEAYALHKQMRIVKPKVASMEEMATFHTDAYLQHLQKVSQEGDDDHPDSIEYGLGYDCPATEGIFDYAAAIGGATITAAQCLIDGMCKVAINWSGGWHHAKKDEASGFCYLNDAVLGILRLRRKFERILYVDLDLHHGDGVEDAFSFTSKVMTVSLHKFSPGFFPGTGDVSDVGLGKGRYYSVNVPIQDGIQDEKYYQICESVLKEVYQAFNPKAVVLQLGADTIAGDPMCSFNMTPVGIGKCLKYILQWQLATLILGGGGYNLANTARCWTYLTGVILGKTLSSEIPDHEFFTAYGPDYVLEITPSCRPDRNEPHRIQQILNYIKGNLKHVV
HDAC-2, sequence (Q92769 whole entry, species assumed): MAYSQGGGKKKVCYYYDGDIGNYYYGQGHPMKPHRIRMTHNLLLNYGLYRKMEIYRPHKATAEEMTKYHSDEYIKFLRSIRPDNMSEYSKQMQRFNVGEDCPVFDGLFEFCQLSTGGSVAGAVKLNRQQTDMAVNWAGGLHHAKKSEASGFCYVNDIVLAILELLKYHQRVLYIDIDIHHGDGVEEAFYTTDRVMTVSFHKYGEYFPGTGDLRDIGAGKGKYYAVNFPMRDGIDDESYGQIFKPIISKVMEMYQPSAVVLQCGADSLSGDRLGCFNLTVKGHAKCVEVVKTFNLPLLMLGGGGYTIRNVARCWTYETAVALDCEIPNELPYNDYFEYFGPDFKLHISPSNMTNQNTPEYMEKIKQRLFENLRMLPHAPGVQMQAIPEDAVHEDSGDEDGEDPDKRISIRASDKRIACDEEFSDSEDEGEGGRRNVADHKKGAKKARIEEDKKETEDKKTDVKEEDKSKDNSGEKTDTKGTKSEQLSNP

`Cn1c(CCCC(=O)O)nc2cc(N(CCCl)CCCl)ccc21` [Bendamustine]: at HDAC-2, the “HDAC IC50, HDAC-2 (result in words)” value is reported as “No activity”. The “HDAC IC50, HDAC-1 (result in words)” value on HDAC-1 (Bendamustine, unit not given) is on record as “No activity”. In addition, at HDAC-10 (HDAC-10, Bendamustine, unit not given), the “HDAC IC50, HDAC-10 (result in words)” value is on record as “No activity”. Also, the “HDAC IC50, HDAC-3 (result in words)” value on HDAC-3 (Bendamustine, unit not given) was “No activity”. In addition, on HDAC-6 (HDAC-6, Bendamustine, unit not given), the “HDAC IC50, HDAC-6 (result in words)” value is reported as “No activity”. The “HDAC IC50, HDAC-8 (result in words)” value on HDAC-8 (HDAC-8, Bendamustine, unit not given) is recorded as “No activity”. Moreover, the IC50 came to 100000 nM in the assay on MM1R, 119000 nM with MM1S and 400000 nM with RPMI8226.

With `Cn1c(CCCCCCC(=O)NO)nc2cc(N(CCCl)CCCl)ccc21` [CY190602], the IC50 against HDAC-2 was 9 nM; on HDAC-1, 17 nM; at HDAC-10, 72 nM; against HDAC-3 it was 25 nM; on HDAC-6 it was 6 nM; against HDAC-8 it was 107 nM. The results for the IC50 in the assay on MM1R, in the assay on MM1S and in the assay on RPMI8226 were 2660 nM, 1600 nM and 4160 nM, respectively.
